Measurements from patent publication US4663311A, “Derivatives of muramyl-peptides and of steroids having macrophage-activating properties” (priority 1983, dated 1987).

How the values were obtained:
Mastocytoma P815 = assay: Growth inhibition of mastocytoma P815 cocultured with treated mouse peritoneal macrophages (tritiated thymidine incorporation); type: cell-based; details: MTP-chol in liposomes at 2 μg/ml (400 μg liposomes/ml) or 1 μg/ml (200 μg liposomes/ml) vs 50 μg of MDP
Experimental: I. The microphages used are peritoneal macrophages from eight week old female BDF 1 mice. They have been brought into the peritoneal cavity by i.p. injection 4 days earlier, of 1.5 ml of a sterile inflammatory irritant, thioglycollate medium (marketed by Institut Pasteur Production).
The peritoneal cells are obtained by peritoneal washing with 5 ml of MEM medium (see below) of mice previously killed by cervical dislocation and bled by decapitation.
After centrifugation, they are replaced in suspension in MEM (Minimal Essential Medium, Institut Pasteur Production) supplemented with 5% of inactivated fetal calf serum (gibco), and antibiotics (penicillin+streptomycine).
The macrophages are identified by microscope by their aptitude to endocyte neutral red and counted on an aliquot portion.
The suspension is then adjusted to 2.10^6 macrophages/ml and distributed in the proportion of 250 μl per cup in a Microtest II (NUNCLON) plastic box of 96 cups.
The disk is placed in an oven (HERAEUS) at 37° C. in an air atmosphere+5% water-saturated CO2. […]
The portion of filter corresponding to each cup is cut out and counted in the presence of scintillation liquid (LIPOLUMAC, LUMA) in a scintillation counter (RACKBETA, LKB). […]
The antitumoral activity of the macrophages is expressed as a percentage of growth inhibition: (%IC) [formula] […]

B16-BL6 melanoma = assay: Cytotoxicity against B16-BL6 melanoma cocultured with treated rat alveolar macrophages (125I-deoxyuridine remaining); type: cell-based
Experimental: The macrophages used are alveolar macrophages of F344 male rats of 200 gm. The macrophages are obtained by washing the lung with 9×5 ml of PBS medium of DULBECCO without calcium or magnesium, of rats anesthesitized with 0.5 ml 5% Nembutal ip (Laboratoires Abbott S.A.) and bled by incision of an artery of the kidney. After centrifugation, they are resuspended in MEM (Minimal Essential Medium) supplemented with 5% of inactivated fetal calf serum (Gibco), glutamine, sodium pyruvate, non-essential amino acids, vitamins and antibiotics (penicillin and streptomycine).
The suspension is then adjusted to 5×10^5 macrophages/ml and redistributed in the proportion of 100 μl per cup in a TITERTEK plastic dish of 96 cups. After incubation for 4 hours, the macrophages have adhered; the non-adherent cells (less than 5%) are removed by aspiration of the medium and two washings with incubation medium. […]
After 96 hours of coculture, the dead cells are removed by 3 washings of each cup with 200 μl of PBS of DULBECCO medium. […] The radioactivity remaining in each cup is counted in a gamma counter (BECKMAN GAMMA 4000). […]
the antitumoral activity of the macrophages is expressed as a cytotoxicity percentage (%CYT): [formula] where T=^125 I-deoxyuridine remaining in the untreated macrophages+tumoral cells coculture; and […]

influenza virus A/PR 8 = assay: Anti-viral activity in experimental influenza infection of Swiss mice; type: in vivo, mouse
Description: The anti-viral activity has been evaluated in an experimental infection system. Swiss mice aged 10 weeks were used. The virus chosen was that of the influenza virus A/PR 8.
At day D-0, the animals received by the intra-nasal route 50 microliters of a viral dilution at 1/10^4.
An anti-viral activity of the tested compound has been found both in preventive and curative experiments (prevention). The administration of one mg of compound by the intra-nasal route one day prior to the viral dilution produced the survival of 67% of the animals.
When the compounds were used at the curative level, the best results were obtained when 0.5 mg of the compound was administered sub-cutaneously one day after the administration of the viral dilution. 71% of the animals survived.

`CC(=O)N[C@@H]1[C@@H](OC(C)C(=O)N[C@@H](C)C(=O)N[C@H](CCC(=O)N[C@@H](C)C(=O)O[C@H]2CC[C@@]3(C)C(=CC[C@H]4[C@@H]5CC[C@H]([C@H](C)CCCC(C)C)[C@@]5(C)CC[C@@H]43)C2)C(N)=O)[C@H](O)[C@@H](CO)O[C@@H]1O` (stereo partly drawn) [MTP-chol, N-acetyl-muramyl-L-alanyl-D-isoglutaminyl-L-alanyl-cholsteryl ester] was tested, and the “activation of macrophages compared with MDP” value (Mastocytoma P815) was “activates the macrophages significantly more than 50 μg of MDP does”, the “concentration of MTP-chol in the liposomes that significantly activates the macrophages” value (B16-BL6 melanoma; 40 μg phospholipid/ml) was > 0.0017 µg/mL and the “concentration of MTP-chol in the liposomes that significantly activates the macrophages” value (B16-BL6 melanoma; 400 μg phospholipid/ml) was “more than 0.017 μg/ml”. The animals survived (influenza virus A/PR 8; curative: 0.5 mg sub-cutaneously one day after the viral dilution) was 71% and the “survival of the animals” value (influenza virus A/PR 8; preventive: one mg intra-nasal one day prior to the viral dilution) was 67%.
